{"source": "paper PMC9774128", "about": "“New Insights into the Mechanism of Antibacterial Action of Synthetic Peptide Mo-CBP3-PepI against Klebsiella pneumoniae” (Antibiotics, 2022)", "key": {"[1]": {"test_system": "L929 cells", "test": "Alkaline comet assay (DNA damage)", "assay_type": "cell-based, mice", "details": "MMS 4 × 10^−5 M, 24 h", "protocol": "(§1) For this assay, MMS at 4 × 10^−5 M was used as the positive control for DNA damage, and peptides were assayed at 1 mg mL^−1. The standard alkaline comet assay (single-cell gel electrophoresis) after treatment (24 h). Cells were washed with ice-cold PBS, trypsinized, and resuspended in a complete medium. […] Afterward, the slides were placed in a horizontal electrophoresis unit and incubated with fresh buffer solution (0.3 M NaOH, 0.001 M EDTA, pH 13.0) at 4 °C for 20 min to allow DNA to unwind and the expression of alkali-labile sites. Electrophoresis was conducted for 20 min at 25 V ([…]). All the above steps were performed in the dark to prevent additional DNA damage. Slides were neutralized (0.4 M Tris, pH 7.5) and stained using 20 µg mL of ethidium bromide. Three hundred cells (100 cells from each of the three replicate slides for each treatment) were selected, coded, and blindly analyzed for DNA migration. These cells were visually scored according to tail length into five classes: • Class 0: undamaged, without a tail; • Class 1: with a tail shorter than the diameter of the head nucleus; • Class 2: with tail length 1–2× the diameter of the head; • Class 3: with a tail longer than 2× the diameter of the head; • Class 4: comets with no heads. The index of damage (ID) value was calculated for each sample. […]"}, "[2]": {"test_system": "L929 (murine fibroblasts)", "test": "Cytotoxicity MTT assay", "assay_type": "cell-based, mice", "details": "peptide 1 mg mL^−1, MMS 4 × 10^−5 M, absorbance 595 nm, three independent experiments", "protocol": "(§2) The cytotoxicity assay was assessed by measuring the ability of live cells to convert a yellow dye, 3-(4,5-dimethyl-2-thiozolyl)-2,5-diphenyl-2H-tetrazolium bromide (MTT), to formazan. The cell lines used were L929 (murine fibroblasts, ATCC number CCL-1), MRC-5 (human lung fibroblasts, ATCC number CCL-171), and HaCaT (human keratinocytes) following the methodology described by Souza et al.. Cells were treated with Mo-CBP3-PepI at 1 mg mL^−1. The alkylating agent methyl methanesulfonate (MMS) at 4 × 10^−5 M was used as the positive control. The MTT formazan product was dissolved in 150 µL of DMSO, and the absorbance was measured using a multiplate reader (Spectra Count, Packard, Mississauga, ON, Canada). The drug effect was quantified as the percentage of control absorbance of the reduced dye at 595 nm."}, "[3]": {"test_system": "MRC-5 (human lung fibroblasts)", "test": "Cytotoxicity MTT assay", "assay_type": "cell-based", "details": "peptide 1 mg mL^−1, MMS 4 × 10^−5 M, absorbance 595 nm, three independent experiments", "protocol": "as §2"}, "[4]": {"test_system": "HaCaT (human keratinocytes)", "test": "Cytotoxicity MTT assay", "assay_type": "cell-based", "details": "peptide 1 mg mL^−1, MMS 4 × 10^−5 M, absorbance 595 nm, three independent experiments", "protocol": "as §2"}, "[5]": {"test_system": "L929 cells", "test": "Morphological analysis of apoptotic cells (AO/EB staining)", "assay_type": "cell-based, mice", "details": "peptide 1 mg mL^−1, MMS 4 × 10^−5 M, 24 h", "protocol": "(§3) For this assay, the concentration of peptides was 1 mg mL^−1. […] Peptides and control solutions were incubated as described above. Cells with the morphological characteristics of apoptosis, such as apoptotic bodies, peripheral condensation of chromatin, fragmented nucleus, and small cell volume, were evaluated after 24 h of treatment, either with controls or peptides. The evaluation was executed using acridine orange (AO)/ethidium bromide (EB) staining assay. A total of 50 µL of the cell suspension was mixed with 1 µL of the staining solution (100 µg/mL AO + 100 µg/mL EB in PBS) and spread on a slide, where 300 cells were counted per data point."}, "[6]": {"test_system": "HaCaT cells", "test": "Alkaline comet assay (DNA damage)", "assay_type": "cell-based, human", "details": "peptide 1 mg mL^−1, MMS 4 × 10^−5 M, 24 h", "protocol": "as §1"}, "[7]": {"test_system": "MRC-5 cells", "test": "Alkaline comet assay (DNA damage)", "assay_type": "cell-based, human", "details": "peptide 1 mg mL^−1, MMS 4 × 10^−5 M, 24 h", "protocol": "as §1"}, "[8]": {"test_system": "HaCaT cells", "test": "Morphological analysis of apoptotic cells (AO/EB staining)", "assay_type": "cell-based, human", "details": "peptide 1 mg mL^−1, MMS 4 × 10^−5 M, 24 h", "protocol": "as §3"}, "[9]": {"test_system": "MRC-5 cells", "test": "Morphological analysis of apoptotic cells (AO/EB staining)", "assay_type": "cell-based, human", "details": "peptide 1 mg mL^−1, MMS 4 × 10^−5 M, 24 h", "protocol": "as §3"}}, "data": [{"compound": "COS(C)(=O)=O", "note": "[MMS, methyl methanesulfonate]", "values": [{"measurement": "DNA damage (comet assay)", "setting": "[1]", "result": "completely damaged DNA"}, {"measurement": "cell viability (MTT)", "setting": "[2]", "result": "death of all cells"}, {"measurement": "cell viability (MTT)", "setting": "[3]", "result": "death of all cells"}, {"measurement": "cell viability (MTT)", "setting": "[4]", "result": "death of all cells"}, {"measurement": "cell morphology / apoptosis", "setting": "[5]", "result": "severe damage to DNA and nuclei structure"}, {"measurement": "DNA damage (comet assay)", "setting": "[6]", "result": "completely damaged DNA"}, {"measurement": "DNA damage (comet assay)", "setting": "[7]", "result": "completely damaged DNA"}, {"measurement": "cell morphology / apoptosis", "setting": "[8]", "result": "severe damage to DNA and nuclei structure"}, {"measurement": "cell morphology / apoptosis", "setting": "[9]", "result": "severe damage to DNA and nuclei structure"}]}]}
